The results in this text go back to patent publication US11117887B2, “Aryl substituted pyrimidines for use in influenza virus infection” (Janssen Sciences Ireland Unlimited Company, priority 2016, dated 2021).

Structures are written as SMILES.

The subject of data set [1] is influenza virus A/Taiwan/1/86 (H1N1). Briefly: organism not typed. The format is cell-based. As to conditions: 72 h; CPE in infected MDCK cells, ATP levels (ATPlite), three days post-virus exposure. A general note: In ATP-based viability assays light output follows the ATP content of the culture.
The nature of another data set: in vitro. As to conditions: dog.

One may read the IC50 as the concentration needed to halve the response being measured. Low values mean higher potency, high ones lower potency. The compound `Cc1nc(-c2c[nH]c3c(F)cc(F)cc23)nc(N[C@H]2CCC[C@@H](Nc3nc(O)ncc3C#N)C2)c1F` [Compound 43] came in with an IC50 in data set [1] of 0.6 nM. The compound further returned a CC50 at 3 days in the data set “in vitro” of more than 25000 nM.

In turn, `Cc1ccnc(N[C@@H]2CCC[C@H](Nc3nc(-c4c[nH]c5ncncc45)nc(C)c3F)C2)n1` [Compound 65] gave an IC50 in data set [1] of 7 nM. In “in vitro”, the CC50 at 3 days is more than 25000 nM.

In turn, `Cc1cc(N[C@@H]2CCC[C@H](Nc3nc(-c4c[nH]c5ncncc45)nc(C)c3F)C2)ncn1` [Compound 64] returned an IC50 in data set [1] of 8 nM. Further, the CC50 at 3 days in “in vitro” is more than 25000 nM.

`Cc1nc(-c2c[nH]c3c(F)cc(F)cc23)nc(N[C@H]2CCC[C@@H](Nc3nc(Cl)nc4c3CCC4)C2)c1F` [Compound 38] gave an IC50 in data set [1] of 1 nM. The CC50 at 3 days in “in vitro” was more than 25000 nM.

Broadly, the melting point is the temperature, or range, at which the solid turns liquid. `N#Cc1nccc(N[C@@H]2CCC[C@H](Nc3nc(-c4c[nH]c5c(F)cc(F)cc45)ncc3F)C2)n1` [Compound 14] had a melting point of 215.6 °C. Further, in data set [1], it took 8 nM to reach half-maximal inhibition (IC50). Moreover, the CC50 at 3 days in the data set “in vitro” worked out at 3150 nM.

`COc1cnc(Cl)nc1N[C@@H]1CCC[C@H](Nc2nc(-c3c[nH]c4c(F)cc(F)cc34)nc(C)c2F)C1` [Compound 45] displayed a melting point of 246.6 °C. Moreover, in data set [1], the IC50 turned out to be 36 nM. In addition, in “in vitro”, the CC50 at 3 days is more than 25000 nM.

On to `Cc1nc(-c2c[nH]c3c(F)cc(F)cc23)nc(N[C@H]2CCC[C@@H](Nc3nc(Cl)ncc3C3CC3)C2)c1F` [Compound 42], for which, in data set [1], the half-inhibitory concentration (IC50) worked out at 41 nM. Also, in “in vitro”, the CC50 at 3 days was more than 25000 nM.

As for `Cc1nc(-c2c[nH]c3c(F)cc(F)cc23)nc(N[C@@H]2CCC[C@H](Nc3cc(C(F)(F)F)nc(Cl)n3)C2)c1F` [Compound 35], the IC50 in data set [1] was found to be 30 nM. This compound also yielded a CC50 at 3 days in the data set “in vitro” of 890 nM.

Regarding `Nc1ncc(F)c(N[C@@H]2CCC[C@H](Nc3nc(-c4c[nH]c5c(F)cc(F)cc45)ncc3F)C2)n1` [Compound 12], in data set [1], the IC50 is 6 nM. The same compound registered a CC50 at 3 days in the data set “in vitro” of more than 1000 nM.

Regarding `Fc1cc(F)c2[nH]cc(-c3ncc(F)c(N[C@H]4CCC[C@@H](Nc5ccnc(Cl)n5)C4)n3)c2c1` [Compound 16], in data set [1], half-maximal inhibition (IC50) was put at 8 nM. In the data set “in vitro”, this compound registered a CC50 at 3 days of 2170 nM.

Compound `Cc1nc(-c2c[nH]c3c(F)cc(F)cc23)nc(N[C@H]2CCC[C@@H](Nc3nc(Cl)nc4sccc34)C2)c1F` [Compound 39] returned an IC50 in data set [1] of 3 nM. The CC50 at 3 days in “in vitro” is more than 25000 nM.

In turn, `Cc1cc(N[C@@H]2CCC[C@H](Nc3nc(-c4c[nH]c5c(F)cc(F)cc45)nc(C)c3F)C2)ncn1` [Compound 46] registered an IC50 in data set [1] of 2 nM. For the same compound, the CC50 at 3 days in the data set “in vitro” was more than 25000 nM.

In turn, `Cc1cc(N[C@@H]2CCC[C@H](Nc3nc(-c4c[nH]c5c(F)cc(F)cc45)nc(C(=O)O)c3F)C2)nc(Cl)n1` [Compound 54] showed an IC50 in data set [1] of 61 nM. The compound also returned a CC50 at 3 days in the data set “in vitro” of more than 25000 nM.

For the compound `COc1nccc(N[C@@H]2CCC[C@H](Nc3nc(-c4c[nH]c5c(F)cc(F)cc45)ncc3F)C2)n1` [Compound 15], the melting point is 139.6 °C. The 50% inhibitory concentration (IC50) in data set [1] worked out at 75 nM. Besides, in the data set “in vitro”, the CC50 at 3 days stood at 3190 nM.

The compound `Nc1nc(N[C@H]2CCC[C@@H](Nc3nc(-c4c[nH]c5c(F)cc(F)cc45)ncc3F)C2)c2ccccc2n1` [Compound 13] showed an IC50 in data set [1] of 20 nM. In “in vitro”, this compound displayed a CC50 at 3 days of 11600 nM.

Regarding `Cc1nc(-c2c[nH]c3c(F)cc(F)cc23)nc(N[C@H]2CCC[C@@H](Nc3ncc(C4CC4)c(Cl)n3)C2)c1F` [Compound 41], the melting point came to 222.7 °C. In addition, half-maximal inhibition in data set [1] (IC50) was put at 39 nM. This compound came in with a CC50 at 3 days in the data set “in vitro” of more than 25000 nM.

As to `Cc1nc(-c2c[nH]c3c(F)cc(F)cc23)nc(N[C@H]2CCC[C@@H](Nc3ncnc4nc[nH]c34)C2)c1F` [Compound 47], it took 0.7 nM to reach half-maximal inhibition in data set [1] (IC50). This compound returned a CC50 at 3 days in the data set “in vitro” of 11000 nM.

`Fc1cc(F)c2[nH]cc(-c3ncc(F)c(N[C@H]4CCC[C@@H](Nc5ncncc5F)C4)n3)c2c1` [Compound 19] yielded a melting point of 215.6 °C. This compound also showed an IC50 in data set [1] of 140 nM. Further, in “in vitro”, the CC50 at 3 days was more than 25000 nM.

`Cc1nc(Cl)nc(N[C@@H]2CCC[C@H](Nc3nc(-c4c[nH]c5c(F)cc(F)cc45)nc(C)c3F)C2)c1F` [Compound 36]: in data set [1], the 50% inhibitory concentration (IC50) stood at 2 nM. Further, the CC50 at 3 days in the data set “in vitro” is more than 25000 nM.

Compound `Fc1cc(F)c2[nH]cc(-c3ncc(F)c(N[C@H]4CCC[C@@H](Nc5ccncn5)C4)n3)c2c1` [Compound 18] had a melting point of 166.5 °C. The 50% inhibitory concentration (IC50) in data set [1] came out at 8 nM. The compound also had a CC50 at 3 days in “in vitro” of 8340 nM.

For `Cc1nc(-c2c[nH]c3c(F)cc(F)cc23)nc(N[C@H]2CCC[C@@H](Nc3nc(Cl)nc4c3CCCC4)C2)c1F` [Compound 37], the IC50 in data set [1] was determined as 11 nM. In the data set “in vitro”, the CC50 at 3 days was more than 25000 nM.

In turn, `Cc1cc(O[C@@H]2CCC[C@H](Nc3nc(-c4c[nH]c5c(F)cc(F)cc45)nc(C)c3F)C2)ncn1` [Compound 71] registered an IC50 in data set [1] of 13 nM. In addition, the CC50 at 3 days in the data set “in vitro” turned out to be 2200 nM.

In data set [1], `Cc1cc(N[C@@H]2CCC[C@H](Nc3nc(-c4c[nH]c5c(F)cc(F)cc45)ncc3F)C2)ncn1` [Compound 11] had an IC50 of 8 nM. The compound also registered a CC50 at 3 days in “in vitro” of 5970 nM.

Compound `Cc1nc(-c2c[nH]c3c(F)cc(F)cc23)nc(N[C@H]2CCC[C@@H](Nc3cncc(Cl)n3)C2)c1F` [Compound 40] registered a melting point of 201.8 °C. The compound also displayed an IC50 in data set [1] of 24 nM. The compound also returned a CC50 at 3 days in “in vitro” of more than 25000 nM.

Compound `Cc1nccc(N[C@H]2CCC[C@@H](Nc3nc(-c4c[nH]c5c(F)cc(F)cc45)ncc3F)C2)n1` [Compound 10] gave an IC50 in data set [1] of 20 nM. Also, the CC50 at 3 days in the data set “in vitro” is 2880 nM.

Consider `Cc1cnc(Cl)nc1N[C@@H]1CCC[C@H](Nc2nc(-c3c[nH]c4c(F)cc(F)cc34)nc(C)c2F)C1` [Compound 44], for which the melting point came to 185.4 °C. Also, the IC50 in data set [1] came out at 10 nM. The CC50 at 3 days in the data set “in vitro” was more than 25000 nM.
